In US10039747B2, “Tetrahydrocyclopentapyrrole derivatives and a method for preparing the same” (Daewoong Pharmaceutical Co., Ltd., priority 2013, dated 2018):

Biological target: T1, H+/K+-ATPase (Sus scrofa, UniProt P19156)
T1 construct: reaction buffer solution (60 mmol/l Tris-HCl buffer solution, pH 7.4) containing hog gastric vesicle; from tissue; host or cells: hog stomach (gastric vesicles, by centrifugation after Rabon et al. 1988)
Assay: Inhibition of proton pump (H+/K+-ATPase) activity in hog gastric vesicles
Format: biochemical
Conditions: K+ specific H+/K+-ATPase activity, pH 7.4, 37° C. for 40 minutes, malachite green
In short: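 Hog gastric vesicles in 60 mmol/l Tris-HCl pH 7.4 with compound, started with ATP, 40 min at 37° C. Pi read by malachite green at 570 nm; K+-specific activity taken as difference between +K+ and −K+ activity. IC50 from % inhibition by 4-parameter logistic fit.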

T1 sequence (P19156 2-1034 limits assumed): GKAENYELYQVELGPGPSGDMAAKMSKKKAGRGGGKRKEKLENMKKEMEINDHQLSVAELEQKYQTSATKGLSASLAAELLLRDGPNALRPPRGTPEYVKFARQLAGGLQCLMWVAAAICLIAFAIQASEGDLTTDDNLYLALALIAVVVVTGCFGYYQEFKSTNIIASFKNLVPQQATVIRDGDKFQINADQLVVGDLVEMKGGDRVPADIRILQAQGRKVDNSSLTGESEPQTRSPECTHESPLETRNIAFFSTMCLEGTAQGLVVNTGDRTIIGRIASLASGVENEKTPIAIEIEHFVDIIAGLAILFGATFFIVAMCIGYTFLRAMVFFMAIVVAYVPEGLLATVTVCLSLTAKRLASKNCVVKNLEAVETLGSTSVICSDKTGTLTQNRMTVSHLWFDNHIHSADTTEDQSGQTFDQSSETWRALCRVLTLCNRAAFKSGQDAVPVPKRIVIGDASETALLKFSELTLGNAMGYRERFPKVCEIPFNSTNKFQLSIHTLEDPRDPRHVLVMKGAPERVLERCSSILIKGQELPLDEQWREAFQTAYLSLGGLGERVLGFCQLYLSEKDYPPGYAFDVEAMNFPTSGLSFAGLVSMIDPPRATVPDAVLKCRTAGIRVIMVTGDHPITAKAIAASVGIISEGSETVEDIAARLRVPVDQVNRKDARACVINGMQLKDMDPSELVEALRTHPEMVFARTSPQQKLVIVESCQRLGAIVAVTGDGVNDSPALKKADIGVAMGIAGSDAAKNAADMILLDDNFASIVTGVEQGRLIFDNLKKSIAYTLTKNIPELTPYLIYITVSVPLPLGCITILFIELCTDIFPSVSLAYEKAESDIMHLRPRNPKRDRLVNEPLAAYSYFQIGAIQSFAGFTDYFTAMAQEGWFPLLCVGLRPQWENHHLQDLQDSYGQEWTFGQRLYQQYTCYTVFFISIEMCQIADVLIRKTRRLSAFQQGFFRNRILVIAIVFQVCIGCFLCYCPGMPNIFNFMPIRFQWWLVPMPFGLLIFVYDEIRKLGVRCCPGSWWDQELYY
T1 sequence (P18434 whole entry partner): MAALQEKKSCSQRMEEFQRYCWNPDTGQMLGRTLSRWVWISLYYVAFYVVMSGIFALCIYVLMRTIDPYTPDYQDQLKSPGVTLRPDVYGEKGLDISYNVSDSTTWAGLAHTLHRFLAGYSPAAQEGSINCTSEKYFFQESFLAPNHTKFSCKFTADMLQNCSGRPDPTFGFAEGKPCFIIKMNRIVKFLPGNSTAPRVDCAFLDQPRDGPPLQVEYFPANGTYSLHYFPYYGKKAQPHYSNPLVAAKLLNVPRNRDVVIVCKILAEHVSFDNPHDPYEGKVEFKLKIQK

An IC50 of 4180 nM was found for `CNC1CCCc2c1cn(S(=O)(=O)c1cccc(C(F)(F)F)c1)c2-c1ccccc1F` (centres unmarked) [Example 124, 1-(2-fluorophenyl)-N-methyl-2-((3-(trifluoromethyl)phenyl)sulfonyl)-4,5,6,7-tetrahydro-2H-isoindole-4-amine] in this work.
An IC50 of 1000 nM was found for `CNC1CCc2c1cn(S(=O)(=O)c1ccc(C)cc1)c2-c1ccccc1F` (centres unmarked) [Example 59, 1-(2-fluorophenyl)-N-methyl-2-tosyl-2,4,5,6-tetrahydrocyclopenta[c]pyrrol-4-amine] in this work.
An IC50 of 2890 nM was found for `CNC1CCc2c1cn(Cc1cccc(C)c1)c2-c1ccccc1F` (centres unmarked) [Example 110, 1-(2-fluorophenyl)-N-methyl-2-(3-methylbenzyl)-2,4,5,6-tetrahydrocyclopenta[c]pyrrol-4-amine] in this work.
An IC50 of 390 nM was found for `CNC1CCc2c1cn(S(=O)(=O)c1cc(Cl)c(Cl)cc1Cl)c2-c1ccccc1F` (centres unmarked) [Example 84, 1-(2-fluorophenyl)-N-methyl-2-((2,4,5-trichlorophenyl)sulfonyl)-2,4,5,6-tetrahydrocyclopenta[c]pyrrol-4-amine] in this work.
An IC50 of 8500 nM was found for `CNC1CC(C)(C)c2c1cn(S(=O)(=O)c1cccnc1)c2-c1ccccc1F` (centres unmarked) [Example 105, 1-(2-fluorophenyl)-N,6,6-trimethyl-2-(pyridin-3-ylsulfonyl)-2,4,5,6-tetrahydrocyclopenta[c]pyrrol-4-amine] in this work.
An IC50 of 7040 nM was found for `CCNC1CCCCc2c1cn(S(=O)(=O)c1cccc(Cl)c1)c2-c1ccccc1F` (centres unmarked) [Example 147, 2-((3-chlorophenyl)sulfonyl)-N-ethyl-1-(2-fluorophenyl)-2,4,5,6,7,8-hexahydrocyclohepta[c]pyrrol-4-amine] in this work.
An IC50 of 460 nM was found for `CNC1CCc2c1cn(S(=O)(=O)c1cc(Cl)cc(Cl)c1)c2-c1ccc(C)cc1F` (centres unmarked) [Example 78, 2-((3,5-dichlorophenyl)sulfonyl)-1-(2-fluoro-4-methylphenyl)-N-methyl-2,4,5,6-tetrahydrocyclopenta[c]pyrrol-4-amine] in this work.
An IC50 of 5430 nM was found for `CNC1CCc2c1cn(S(=O)(=O)c1cccc(Cl)c1)c2-c1ccncc1` (centres unmarked) [Example 42, 2-((3-chlorophenyl)sulfonyl)-N-methyl-1-(pyridin-4-yl)-2,4,5,6-tetrahydrocyclopenta[c]pyrrol-4-amine] in this work.
An IC50 of 450 nM was found for `CNC1CCc2c1cn(S(=O)(=O)c1cccc(Cl)c1)c2-c1ccc(C)o1` (centres unmarked) [Example 32, 2-((3-chlorophenyl)sulfonyl)-N-methyl-1-(5-methylfuran-2-yl)-2,4,5,6-tetrahydrocyclopenta[c]pyrrol-4-amine] in this work.
An IC50 of 1320 nM was found for `CNC1CCc2c1cn(S(=O)(=O)c1cccc(Cl)c1)c2-c1ccccc1C1CC=CC1` (centres unmarked) [Example 6, 2-((3-chlorophenyl)sulfonyl)-1-(2-(cyclopent-3-en-1-yl)phenyl)-N-methyl-2,4,5,6-tetrahydrocyclopenta[c]pyrrol-4-amine] in this work.
An IC50 of 2160 nM was found for `Cc1oc(=O)oc1CN(C)C1CCc2c1cn(S(=O)(=O)c1cccc(Cl)c1)c2-c1ccccc1F` (centres unmarked) [Example 119, 4-(((2-((3-chlorophenyl)sulfonyl)-1-(2-fluorophenyl)-2,4,5,6-tetrahydrocyclopenta[c]pyrrol-4-yl)(methyl)amino)methyl)-5-methyl-1,3-dioxol-2-one] in this work.
An IC50 of 50000 nM was found for `CC(C)NC1CCc2c1cn(S(=O)(=O)c1cccnc1)c2-c1ccccc1F` (centres unmarked) [Example 104, 1-(2-fluorophenyl)-N-isopropyl-2-(pyridin-3-ylsulfonyl)-2,4,5,6-tetrahydrocyclopenta[c]pyrrol-4-amine] in this work.
An IC50 of 1490 nM was found for `CNC1CCc2c1cn(S(=O)(=O)c1cccc(Cl)c1)c2-c1cccnc1` (centres unmarked) [Example 37, 2-((3-chlorophenyl)sulfonyl)-N-methyl-1-(pyridin-3-yl)-2,4,5,6-tetrahydrocyclopenta[c]pyrrol-4-amine] in this work.
An IC50 of 540 nM was found for `CNC1CCc2c1cn(S(=O)(=O)c1cccc(Cl)c1)c2-c1ccc(Cl)cc1F` (centres unmarked) [Example 20, 1-(4-chloro-2-fluorophenyl)-2-((3-chlorophenyl)sulfonyl)-N-methyl-2,4,5,6-tetrahydrocyclopenta[c]pyrrol-4-amine] in this work.
An IC50 of 5950 nM was found for `CNC1CCc2c1cn(S(=O)(=O)c1c(Cl)cc(C(F)(F)F)cc1Cl)c2-c1ccccc1F` (centres unmarked) [Example 86, 2-((2,6-dichloro-4-(trifluoromethyl)phenyl)sulfonyl)-1-(2-fluorophenyl)-N-methyl-2,4,5,6-tetrahydrocyclopenta[c]pyrrol-4-amine] in this work.
An IC50 of 1280 nM was found for `CNC1CCc2c1cn(S(=O)(=O)c1cccc(Cl)c1)c2-c1ccc2occc2c1` (centres unmarked) [Example 29, 1-(benzofuran-5-yl)-2-((3-chlorophenyl)sulfonyl)-N-methyl-2,4,5,6-tetrahydrocyclopenta[c]pyrrol-4-amine] in this work.
An IC50 of 1500 nM was found for `CNC1CCCc2c1cn(S(=O)(=O)c1cccc(C)c1)c2-c1ccccc1F` (centres unmarked) [Example 121, 1-(2-fluorophenyl)-N-methyl-2-(m-tolylsulfonyl)-4,5,6,7-tetrahydro-2H-isoindole-4-amine] in this work.
An IC50 of 1040 nM was found for `CNC1CCc2c1cn(S(=O)(=O)c1cccc(Cl)c1)c2-c1cnn(C)c1` (centres unmarked) [Example 30, 2-((3-chlorophenyl)sulfonyl)-N-methyl-1-(1-methyl-1H-pyrazol-4-yl)-2,4,5,6-tetrahydrocyclopenta[c]pyrrol-4-amine] in this work.
An IC50 of 690 nM was found for `CNC1CCc2c1cn(S(=O)(=O)c1cccc(Cl)c1)c2-c1cscc1C` (centres unmarked) [Example 34, 2-((3-chlorophenyl)sulfonyl)-N-methyl-1-(4-methylthiophen-3-yl)-2,4,5,6-tetrahydrocyclopenta[c]pyrrol-4-amine] in this work.
An IC50 of 790 nM was found for `CNC1CCc2c1cn(S(=O)(=O)c1cccc(Cl)c1)c2-c1cc(Cl)cc(Cl)c1` (centres unmarked) [Example 25, 2-((3-chlorophenyl)sulfonyl)-1-(3,5-dichlorophenyl)-N-methyl-2,4,5,6-tetrahydrocyclopenta[c]pyrrol-4-amine] in this work.
An IC50 of 350 nM was found for `CNC1CCc2c1cn(S(=O)(=O)c1cccc(C)c1)c2-c1ccc(C)cc1F` (centres unmarked) [Example 52, 1-(2-fluoro-4-methylphenyl)-N-methyl-2-(m-tolylsulfonyl)-2,4,5,6-tetrahydrocyclopenta[c]pyrrol-4-amine] in this work.
An IC50 of 7690 nM was found for `CNC1CCc2c1cn(S(=O)(=O)c1cccc(Cl)c1)c2-c1ccc(N2CCCC2)nc1` (centres unmarked) [Example 40] in this work.
An IC50 of 450 nM was found for `CNC1CCc2c1cn(S(=O)(=O)c1cccc(Cl)c1)c2-c1cc(Cl)ccc1F` (centres unmarked) [Example 22, 1-(5-chloro-2-fluorophenyl)-2-((3-chlorophenyl)sulfonyl)-N-methyl-2,4,5,6-tetrahydrocyclopenta[c]pyrrol-4-amine] in this work.
An IC50 of 690 nM was found for `CNC1CCc2c1cn(S(=O)(=O)c1cccnc1)c2-c1ccc(Cl)cc1F` (centres unmarked) [Example 91, 1-(4-chloro-2-fluorophenyl)-N-methyl-2-(pyridin-3-ylsulfonyl)-2,4,5,6-tetrahydrocyclopenta[c]pyrrol-4-amine] in this work.
An IC50 of 1720 nM was found for `CNC1CCc2c1cn(S(=O)(=O)c1cccc(N(C)C)c1)c2-c1ccccc1F` (centres unmarked) [Example 56, 2-((3-(dimethylamino)phenyl)sulfonyl)-1-(2-fluorophenyl)-N-methyl-2,4,5,6-tetrahydrocyclopenta[c]pyrrol-4-amine] in this work.
An IC50 of 900 nM was found for `CNC1CCc2c1cn(S(=O)(=O)c1cccc(Cl)c1)c2-c1ccc(Cl)cc1Cl` (centres unmarked) [Example 21, 2-((3-chlorophenyl)sulfonyl)-1-(2,4-dichlorophenyl)-N-methyl-2,4,5,6-tetrahydrocyclopenta[c]pyrrol-4-amine] in this work.
An IC50 of 410 nM was found for `CNC1CCc2c1cn(S(=O)(=O)c1cccc(Cl)c1)c2-c1cc(Cl)ccc1Cl` (centres unmarked) [Example 23, 2-((3-chlorophenyl)sulfonyl)-1-(2,5-dichlorophenyl)-N-methyl-2,4,5,6-tetrahydrocyclopenta[c]pyrrol-4-amine] in this work.
An IC50 of 6240 nM was found for `CNC1CCc2c1cn(Cc1ccccc1)c2-c1ccccc1F` (centres unmarked) [Example 109, 2-benzyl-1-(2-fluorophenyl)-N-methyl-2,4,5,6-tetrahydrocyclopenta[c]pyrrol-4-amine] in this work.
An IC50 of 1190 nM was found for `CNC1CCc2c1cn(S(=O)(=O)c1cccnc1)c2-c1ccccc1Cl` (centres unmarked) [Example 89, 1-(2-chlorophenyl)-N-methyl-2-(pyridin-3-ylsulfonyl)-2,4,5,6-tetrahydrocyclopenta[c]pyrrol-4-amine] in this work.
An IC50 of 430 nM was found for `CNC1CCc2c1cn(S(=O)(=O)c1cc(Cl)ccc1Cl)c2-c1ccccc1F` (centres unmarked) [Example 70, 2-((2,5-dichlorophenyl)sulfonyl)-1-(2-fluorophenyl)-N-methyl-2,4,5,6-tetrahydrocyclopenta[c]pyrrol-4-amine] in this work.
An IC50 of 420 nM was found for `CNC1CCc2c1cn(S(=O)(=O)c1ccc(F)cc1)c2-c1ccc(C)cc1F` (centres unmarked) [Example 60, 1-(2-fluoro-4-methylphenyl)-2-((4-fluorophenyl)sulfonyl)-N-methyl-2,4,5,6-tetrahydrocyclopenta[c]pyrrol-4-amine] in this work.
An IC50 of 2170 nM was found for `CNC1CCc2c1cn(S(=O)(=O)c1ccccc1Cl)c2-c1ccc(F)cc1C` (centres unmarked) [Example 49, 2-((2-chlorophenyl)sulfonyl)-1-(4-fluoro-2-methylphenyl)-N-methyl-2,4,5,6-tetrahydrocyclopenta[c]pyrrol-4-amine] in this work.
